Assays:
[1] = molecular target: T1, human c-Mpl-introduced Ba/F3 cell (Homo sapiens, UniProt P40238); test: Test Example 2: human c-Mpl-introduced Ba/F3 cell proliferative activity; assay type: cell-based; settings: concentration exhibiting 30% proliferation; 100% = positive control (Example 315 of Patent Document 1) at 1 μM
T1 construct: expressed in transfected cells
T1 sequence (P40238 26-635): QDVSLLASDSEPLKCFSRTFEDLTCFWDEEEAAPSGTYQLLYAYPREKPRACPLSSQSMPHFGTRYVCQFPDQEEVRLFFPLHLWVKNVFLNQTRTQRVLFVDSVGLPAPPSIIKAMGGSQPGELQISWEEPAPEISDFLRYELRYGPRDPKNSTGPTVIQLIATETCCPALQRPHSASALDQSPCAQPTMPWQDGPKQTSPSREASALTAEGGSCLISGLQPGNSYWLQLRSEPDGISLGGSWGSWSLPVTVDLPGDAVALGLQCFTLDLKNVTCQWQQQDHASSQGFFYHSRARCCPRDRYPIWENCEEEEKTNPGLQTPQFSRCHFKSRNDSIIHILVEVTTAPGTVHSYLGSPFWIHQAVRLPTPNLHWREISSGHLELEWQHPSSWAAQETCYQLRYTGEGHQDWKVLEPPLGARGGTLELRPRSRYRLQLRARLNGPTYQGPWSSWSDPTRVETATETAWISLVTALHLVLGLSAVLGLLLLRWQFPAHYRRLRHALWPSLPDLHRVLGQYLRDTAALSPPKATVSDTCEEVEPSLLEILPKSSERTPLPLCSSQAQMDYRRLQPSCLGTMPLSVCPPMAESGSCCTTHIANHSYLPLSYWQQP
Method: Test Example 2: Evaluation of Human c-Mpl-Introduced Ba/F3 Cell Proliferative Activity
The human c-Mpl-introduced Ba/F3 cell proliferation action was measured by the following method.
As a positive control, 1-(5-{[4-(4-chlorothiophen-2-yl)-5-{[(2R)-2-methylpyrrolidin-1-yl]methyl}-1,3-thiazol-2-yl]carbamoyl}-3-fluoropyridin-2-yl)piperidine-4-carboxylic acid hydrochloride disclosed as Example 315 in Patent Document 1, represented by the formula (A1) above, was used. Further, it is known that the compound has a good human c-Mpl-introduced Ba/F3 cell proliferative activity as disclosed in Table 1 in Patent Document 1.
a) Construction of Vector Expressing Human c-Mpl Receptor
A human c-Mpl receptor gene (GenBank Accession No.: M90102.1) was transfected into an expression vector pEF-BOS (Nucleic Acids Research, 18: pp 5322 (1990)).
b) Construction of Cell Stably Expressing Human c-Mpl Receptor
A vector expressing a human c-Mpl receptor was introduced into a Ba/F3 cell (RIKEN BRC: RCB0805). For the introduction, an electroporation method was used. pEF-BOS-c-mpl (10 μg), pSV2bsr (1 μg, Kaken Pharmaceutical Co., Ltd.) and 1×10^7 of Ba/F3 cells were put into cuvettes with a gap width of 0.4 cm and electroporated under a condition of 1.5 kV (25 μF) in a Gene Pulser (registered trademark) (BioRad). The cells were incubated in an RPMI-1640 medium supplemented with a 0.5% WEHI conditioned medium (BD Biosciences) and 10% fetal bovine serum for 3 days, and thereafter, and the cells were incubated for 30 days in an RPMI-1640 medium, to which 10 μg/mL blasticidin had been further added, thereby acquiring a drug-resistant clone.
c) Measurement of Cell Proliferative Activity
The cells obtained in b) above were dispensed into an RPMI-1640 medium supplemented with a 0.5% WEHI conditioned medium and 10% fetal bovine serum, and used. The day before the experiment, the test substances (final concentration of 100 nM to 10 μM) which had been dissolved in a medium for assay (an RPMI-1640 medium supplemented with 10% fetal bovine serum) were added to a 384-well plate (Model No. 781185, Greiner bio-one). The cells after the medium had been replaced with the medium for assay were dispensed to a 384-well plate to which the test substance had been added, to 1×10^4 cells/well, and incubated overnight at 37° C. and 5% CO2. On the experiment day, a solution of a Cell counting kit (Dojindo Laboratories) was added to each well of the 384-well plate, and the cells were incubated for about 5 hours at 37° C. and 5% CO2. Thereafter, the absorbance (an absorbance wavelength of 450 nm) of each well was measured using Safire^2 (registered trademark) (TECAN), and used as an index for the number of cells. Further, as a negative control, a well to which the test substances had not been added was prepared.
By taking the absorbance of the well to which the test substance had been not added as 0% and taking the absorbance in a case where the positive control had been added to a final concentration of 1 μM as 100%, a cell proliferation rate (%) was calculated from the absorbance of the well to which the test substance had been added.

[2] = molecular target: human muscarinic M3 receptor (Homo sapiens, UniProt P20309)
human muscarinic M3 receptor, sequence (P20309 whole entry): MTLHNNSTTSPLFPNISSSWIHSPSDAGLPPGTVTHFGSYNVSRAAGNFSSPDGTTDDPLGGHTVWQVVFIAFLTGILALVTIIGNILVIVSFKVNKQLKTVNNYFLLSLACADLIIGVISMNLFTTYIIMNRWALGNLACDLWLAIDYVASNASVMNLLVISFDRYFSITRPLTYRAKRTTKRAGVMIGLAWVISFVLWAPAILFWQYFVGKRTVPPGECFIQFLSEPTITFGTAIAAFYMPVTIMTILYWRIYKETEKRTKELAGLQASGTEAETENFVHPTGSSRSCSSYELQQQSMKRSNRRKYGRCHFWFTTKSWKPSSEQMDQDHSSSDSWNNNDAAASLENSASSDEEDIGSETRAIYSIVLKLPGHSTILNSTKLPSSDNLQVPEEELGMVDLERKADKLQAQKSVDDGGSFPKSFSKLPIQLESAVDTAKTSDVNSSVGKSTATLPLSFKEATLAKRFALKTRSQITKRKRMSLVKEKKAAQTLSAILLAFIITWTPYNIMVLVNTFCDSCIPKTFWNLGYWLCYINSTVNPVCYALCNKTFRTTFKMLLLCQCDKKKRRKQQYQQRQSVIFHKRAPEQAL

SMILES	human c-Mpl-introduced Ba/F3 cell proliferative activity EC30 [1]	muscarinic M3 receptor-positive allosteric modulator activity, 1 μM (-fold shift) [2]	muscarinic M3 receptor-positive allosteric modulator activity, 10 μM (-fold shift) [2]
C[C@@H]1CCCN1Cc1sc(NC(=O)c2cnc(N3CCN(CCC(=O)O)CC3)cn2)nc1-c1cc(Br)cc(C(F)(F)F)c1 [Example 27]	>10 µM	31 -fold shift	330 -fold shift
CC(C)CN(C)Cc1sc(NC(=O)c2cnc(N3CCN(CCC(=O)O)CC3)cn2)nc1-c1cc(F)cc(C(F)(F)F)c1 [Example 107]	>10 µM	73 -fold shift	318 -fold shift
CCN(CC)Cc1sc(NC(=O)c2cnc(N3CCN(CC(=O)O)C[C@H]3C)cn2)nc1-c1cc(F)cc(C(F)(F)F)c1 [Example 118]	>10 µM	57 -fold shift	167 -fold shift
CC(C(=O)O)N1CCN(c2cnc(C(=O)Nc3nc(-c4cc(Cl)cc(C(F)(F)F)c4)c(CN4CCC[C@H]4C)s3)cn2)CC1 (stereo partly drawn) [Example 12]	>10 µM	33 -fold shift	178 -fold shift
COc1c(F)cc(-c2nc(NC(=O)c3cnc(N4CCN(CCC(=O)O)C[C@@H]4C)cn3)sc2CN2CCC[C@H]2C)cc1C(F)(F)F [Example 91]	>10 µM	19 -fold shift	139 -fold shift
CN(Cc1sc(NC(=O)c2cnc(N3CCN(CCC(=O)O)CC3)cn2)nc1-c1cc(F)cc(C(F)(F)F)c1)CC1CC1 [Example 108]	>10 µM	56 -fold shift	169 -fold shift
CCOc1ccc(-c2nc(NC(=O)c3cnc(N4CCN(CCC(=O)O)CC4)cn3)sc2CN2CCC[C@H]2C)cc1C(F)(F)F [Example 54]	>10 µM	36 -fold shift	134 -fold shift
COc1ncc(-c2nc(NC(=O)c3cnc(N4CCN(CCC(=O)O)CC4)cn3)sc2CN2CCC[C@H]2C)cc1C(F)(F)F [Example 33]	>10 µM	40 -fold shift	182 -fold shift
C[C@@H]1CCCN1Cc1sc(NC(=O)c2cnc(N3CCN(CCC(=O)O)CC3)cn2)nc1-c1ccc(C2CC2)c(C(F)(F)F)c1 [Example 63]	>10 µM	39 -fold shift	186 -fold shift
CCN(Cc1sc(NC(=O)c2cnc(N3CCN(CCC(=O)O)CC3)cn2)nc1-c1cc(F)cc(C(F)(F)F)c1)C(C)C [Example 106]	>10 µM	41 -fold shift	270 -fold shift

Results, then the compound that gave them:

human c-Mpl-introduced Ba/F3 cell proliferative activity EC30 [1]	muscarinic M3 receptor-positive allosteric modulator activity, 1 μM (-fold shift) [2]	muscarinic M3 receptor-positive allosteric modulator activity, 10 μM (-fold shift) [2]	SMILES
>10 µM	95 -fold shift	151 -fold shift	C[C@@H]1CN(c2cnc(C(=O)Nc3nc(-c4cc(Cl)cs4)c(CN(C)CC4CC4)s3)cn2)CCN1CCC(=O)O [Example 130]
>10 µM	37 -fold shift	195 -fold shift	CC[C@@H]1CCCN1Cc1sc(NC(=O)c2cnc(N3CCN(CC(=O)O)CC3)cn2)nc1-c1cc(F)cc(C(F)(F)F)c1 [Example 62]
8 µM	73 -fold shift	192 -fold shift	C[C@H]1CN(c2cnc(C(=O)Nc3nc(-c4cc(Cl)cs4)c(CN(C)CC4CC4)s3)cn2)CCN1CCC(=O)O [Example 128]
>10 µM	15 -fold shift	41 -fold shift	C[C@@H]1CCCN1Cc1sc(NC(=O)c2cnc(N3CCN(CCC(=O)O)CC3)cn2)nc1-c1cc2ccccc2s1 [Example 132]
>10 µM	27 -fold shift	177 -fold shift	CC[C@@H]1CCCN1Cc1sc(NC(=O)c2cnc(N3CCN(CCC(=O)O)CC3)cn2)nc1-c1cc(C2CC2)cc(C(F)(F)F)c1 [Example 69]
>10 µM	79 -fold shift	318 -fold shift	C[C@@H]1CC[C@@H](C)N1Cc1sc(NC(=O)c2cnc(N3CCN(CCC(=O)O)[C@@H](C)C3)cn2)nc1-c1cc(Cl)cs1 [Example 126]
2.8 µM	55 -fold shift	121 -fold shift	C[C@@H]1CCCN1Cc1sc(NC(=O)c2cnc(N3CCN(CCC(=O)O)CC3)cn2)nc1-c1cc(Br)cs1 [Example 97]
0.5 µM	89 -fold shift	94 -fold shift	CC[C@@H]1CCCN1Cc1sc(NC(=O)c2cnc(N3CCN(CCC(=O)O)[C@@H](C)C3)cn2)nc1-c1cc(Cl)cs1 [Example 81]
2.7 µM	64 -fold shift	112 -fold shift	C[C@@H]1CCCN1Cc1sc(NC(=O)c2cnc(N3CCN(CCC(=O)O)C[C@H]3C)cn2)nc1-c1cc(Br)cs1 [Example 101]
1.8 µM	60 -fold shift	171 -fold shift	C[C@@H]1CN(c2cnc(C(=O)Nc3nc(-c4cc(Cl)cs4)c(CN4CCC[C@H]4C)s3)cn2)CCN1CCC(=O)O [Example 79]
>10 µM	43 -fold shift	160 -fold shift	CC[C@@H]1CCCN1Cc1sc(NC(=O)c2cnc(N3CCN(CC(=O)O)CC3)cn2)nc1-c1ccc(OC)c(C(F)(F)F)c1 [Example 41]
